{"source": "patent US20240287108A1", "about": "“nSMASE2 INHIBITOR PRODRUGS WITH ENHANCED ORAL AND BRAIN EXPOSURES” (The Johns Hopkins University, priority 2021, published 2024)", "key": {"[1]": {"assay": "time-dependent oral pharmacokinetics in mice", "type": "in vivo, mouse", "method": "As described earlier, we identified P1 and P18 as the most promising candidates for time dependent PK.\n(§1) All PK studies in mice were conducted according to protocols approved by the Animal Care and Use Committee at Johns Hopkins University. Male CD-1 mice between 25 and 30 g were obtained from Harlan and maintained on a 12 h light-dark cycle with ad libitum access to food and water. […] All of the formulations were freshly prepared prior to the dosing. The mice were sacrificed at specified time points (either 2 h or 0.25, 0.5, 1, 2, 4, 6, and 8 h) post drug administration. For the collection of plasma and brain tissue, animals were euthanized with CO2, and blood samples were collected in heparinized microtubes by cardiac puncture. Brains were dissected and immediately flash frozen (−80° C.) Blood samples were spun at 2000 g for 15 min, and plasma was removed and stored at −80° C. until LC-MS/MS analysis. Prior to extraction, frozen samples were thawed on ice.\nBrain tissues were diluted 1:5 w/v with acetonitrile containing losartan (0.5 μm) and homogenized, followed by vortex-mixing and centrifugation at 10,000 g for 10 min at 4° C. A 50 μL aliquot of the supernatant were diluted with 50 uL of water and transferred to 250 μL polypropylene autosampler vials sealed with teflon caps. Then, 2 μL of the sample were injected into the LC/MS/MS system for analysis. Chromatographic analysis was performed using an Accela ultra-high-performance system consisting of an analytical pump and an autosampler coupled with a TSQ Vantage mass spectrometer. […] The mobile phase consisted of 0.1% formic acid in acetonitrile and 0.1% formic acid in water with gradient elution were used. […] Plasma concentrations (nmol/ml) as well as brain tissue concentrations (nmol/g) were determined and plots of mean plasma concentration versus time were constructed. Non-compartmental analysis modules in Phoenix WinNonlin version 7.0 (Certara USA, Inc., Princeton, NJ) were used to quantify exposures (AUC0-t)."}, "[2]": {"assay": "single time-point (2 h) oral pharmacokinetic screening in mice", "type": "in vivo, mouse", "settings": "single time point PK, oral 10 mg/kg DPTIP equivalent", "method": "as §1\nBrain tissues were diluted 1:5 w/v with acetonitrile containing losartan (0.5 μm) and homogenized, followed by vortex-mixing and centrifugation at 10,000 g for 10 min at 4° C. […] Plasma concentrations (nmol/ml) as well as brain tissue concentrations (nmol/g) were determined and plots of mean plasma concentration versus time were constructed. Non-compartmental analysis modules in Phoenix WinNonlin version 7.0 (Certara USA, Inc., Princeton, NJ) were used to quantify exposures (AUC0-t)."}, "[3]": {"assay": "in vivo pharmacokinetic studies in mice (Example 1)", "parameters": "species or system mouse", "settings": "for AUC / MRT / half-life / Cmax: 10 mg/kg", "method": "1.2.1 In vitro metabolic stability assessment. In vitro metabolic stability assessment was performed using mouse plasma, and liver homogenates. For the liver homogenates, washed tissues were diluted 10-fold in 0.1 M potassium phosphate buffer and homogenized using a probe sonicator. To evaluate the stability of the intact prodrug over time, each of the tissue matrix were aliquoted to 1 mL and then spiked with 10 μM of corresponding prodrugs followed by incubation in an orbital shaker at 37° C. for 1 h (in triplicate). Sample from each incubation at predetermined time points (0 min, and 1 h) was quenched with three volumes of acetonitrile containing the internal standard (IS: losartan: 0.5 μm). Samples were vortex-mixed for 30 secs and centrifuged at 10,000 RPM for 10 min at 4° C. Disappearance of the intact compound was measured using liquid chromatography tandem mass spectrometry (LC-MS/MS). 1.2.2 In vivo pharmacokinetic studies in mice. Male CD-1 mice (n=3) were used to study the pharmacokinetic profiles of representive prodrug compounds. […] Blood and brain were collected after sacrificing the mice at predetermined time points. Plasma was harvested from blood by centrifugation at 3,000 RPM for 15 min and stored at −80° C. Brain tissues were harvested following blood collection and immediately snap frozen in liquid nitrogen and stored at −80° C. until LC-MS/MS analysis. […] Brain tissues were diluted 1:5 w/v with acetonitrile containing losartan (0.5 μm) and homogenized, followed by vortex-mixing and centrifugation at 10,000 RPM for 10 min at 4° C. A 50 μL aliquot of the supernatant was diluted with 50 μL of water and transferred to 250 μL polypropylene autosampler vials sealed with teflon caps. Then, 2 μL of the sample was injected into the LC-MS/MS system for analysis."}, "[4]": {"assay": "in vitro stability in CES1−/− mouse liver homogenates", "type": "in vitro ADME", "settings": "CES1−/− mouse liver homogenate, 10 μM, 37° C.", "method": "(§2) All synthesized prodrugs were next screened for in vitro stability in carboxylesterase 1 knockout (CES1^−/−) mouse plasma, as well as CES1^−/− mouse brain and liver homogenates (Table 2-1). We have previously reported that CES1^−/− mouse model recapitulates human prodrug metabolism.\n(§3) For the tissue homogenates, washed tissues were diluted 10-fold in 0.1 M potassium phosphate buffer and homogenized using a probe sonicator. To evaluate the stability of the intact prodrug over time, each of the crude homogenates and plasma were aliquoted to 1 mL and then spiked with a final assay concentration of 10 μM of each prodrug followed by incubation in an orbital shaker at 37° C. for 1 h (in triplicate). Sample from each incubation at predetermined time points (0 min, and 1 h) was quenched with three volumes of acetonitrile containing the internal standard (IS; losartan: 0.5 μm). Samples were vortex-mixed for 30 secs and centrifuged at 10,000×g for 10 min at 4° C. Disappearance of intact prodrugs from these samples were performed on a Dionex ultra-high-performance LC system coupled with Q Exactive Focus orbitrap mass spectrometer (Thermo Fisher Scientific Inc., Waltham MA). […] The mobile phase consisted of 0.1% formic acid in water and 0.1% formic acid in acetonitrile. Pumps were operated at a flow rate of 0.4 mL/min for 9 min using gradient elution. The mass spectrometer controlled by Xcalibur software 4.0.27.13 (Thermo Scientific) was operated with a heated electrospray ionization (HESI) ion source in positive ionization mode. Quantification of the prodrugs were performed in the full-scan mode (from m/z 50 to 1600) by comparing t=0 samples with t=60 min samples."}, "[5]": {"assay": "in vitro stability in CES1−/− mouse plasma", "type": "in vitro ADME", "settings": "10 μM", "method": "as §2, with “metabolism. Tenora et al., 2019.” for “metabolism.”\nZimmermann et al., 2018. For the tissue homogenates, washed tissues were diluted 10-fold in 0.1 M potassium phosphate buffer and homogenized using a probe sonicator. To evaluate the stability of the intact prodrug over time, each of the crude homogenates and plasma were aliquoted to 1 mL and then spiked with a final assay concentration of 10 μM of each prodrug followed by incubation in an orbital shaker at 37° C. for 1 h (in triplicate). Sample from each incubation at predetermined time points (0 min, and 1 h) was quenched with three volumes of acetonitrile containing the internal standard (IS; losartan: 0.5 μm). Samples were vortex-mixed for 30 secs and centrifuged at 10,000×g for 10 min at 4° C. Disappearance of intact prodrugs from these samples were performed on a Dionex ultra-high-performance LC system coupled with Q Exactive Focus orbitrap mass spectrometer (Thermo Fisher Scientific Inc., Waltham MA). The separation of analytes was achieved using the Agilent Eclipse Plus column (100×2.1 mm i.d.; maintained at 35° C.) packed with a 1.8 μm C18 stationary phase. The mobile phase consisted of 0.1% formic acid in water and 0.1% formic acid in acetonitrile. Pumps were operated at a flow rate of 0.4 mL/min for 9 min using gradient elution. The mass spectrometer controlled by Xcalibur software 4.0.27.13 (Thermo Scientific) was operated with a heated electrospray ionization (HESI) ion source in positive ionization mode. Quantification of the prodrugs were performed in the full-scan mode (from m/z 50 to 1600) by comparing t=0 samples with t=60 min samples."}, "[6]": {"assay": "in vitro metabolic stability in mouse plasma (Example 1)", "type": "in vitro ADME", "settings": "10 μM, 37° C.", "method": "1.2.1 In vitro metabolic stability assessment. In vitro metabolic stability assessment was performed using mouse plasma, and liver homogenates. For the liver homogenates, washed tissues were diluted 10-fold in 0.1 M potassium phosphate buffer and homogenized using a probe sonicator. To evaluate the stability of the intact prodrug over time, each of the tissue matrix were aliquoted to 1 mL and then spiked with 10 μM of corresponding prodrugs followed by incubation in an orbital shaker at 37° C. for 1 h (in triplicate). Sample from each incubation at predetermined time points (0 min, and 1 h) was quenched with three volumes of acetonitrile containing the internal standard (IS: losartan: 0.5 μm). Samples were vortex-mixed for 30 secs and centrifuged at 10,000 RPM for 10 min at 4° C. Disappearance of the intact compound was measured using liquid chromatography tandem mass spectrometry (LC-MS/MS). 1.2.2 In vivo pharmacokinetic studies in mice. Male CD-1 mice (n=3) were used to study the pharmacokinetic profiles of representive prodrug compounds. […] Blood and brain were collected after sacrificing the mice at predetermined time points. Plasma was harvested from blood by centrifugation at 3,000 RPM for 15 min and stored at −80° C. Brain tissues were harvested following blood collection and immediately snap frozen in liquid nitrogen and stored at −80° C. until LC-MS/MS analysis. […]"}, "[7]": {"assay": "in vitro stability in CES1−/− mouse brain homogenates", "type": "in vitro ADME", "settings": "CES1−/− mouse brain homogenate, 10 μM, 37° C.", "method": "as §2, §3"}, "[8]": {"settings": "previously reported pharmacokinetics; cited from earlier work"}, "EV release": {"test_system": "EV release", "settings": "previously reported; in vitro (b234 also in vivo when delivered systemically); cited from earlier work"}, "[9]": {"assay": "dog plasma pharmacokinetics", "type": "in vivo", "settings": "IV 2 mg/kg"}, "[10]": {"settings": "male, CD-1, mouse, in vivo, po, intact prodrug, brain, mice, 10 mg/kg eqv"}, "[11]": {"settings": "male, CD-1, mouse, in vivo, po, intact prodrug, plasma, mice, 10 mg/kg eqv"}}}
{"smiles": "COc1cc(-c2nc(-c3ccccc3)c(-c3cccs3)[nH]2)cc(OC)c1OC(=O)N1CCC(N2CCCCC2)CC1", "note": "[Compound P1, 2,6-Dimethoxy-4-(4-phenyl-5-(thiophen-2-yl)-1H-imidazol-2-yl)phenyl[1,4′-bipiperidine]-1′-carboxylate]", "values": [{"measurement": "plasma exposure of the intact compound (AUC0-t)", "setting": "[1]; oral 10 mg/kg DPTIP equivalent", "value": 829.9, "unit": "pmol·h/mL"}, {"measurement": "conversion of prodrug to DPTIP in vivo", "setting": "[1]; oral 10 mg/kg DPTIP equivalent (P18: in the brain)", "value": "about 40%"}, {"measurement": "improvement of brain and plasma levels of DPTIP and/or its brain penetration index compared with DPTIP", "setting": "[2]", "value": "highest improvement"}, {"measurement": "AUC", "setting": "[3]; [10]", "value": 0.477, "unit": "µM·h"}, {"measurement": "MRT", "setting": "[3]; [10]", "value": 2.12, "unit": "h"}, {"measurement": "half-life", "setting": "[3]; [10]", "value": 262, "unit": "min"}, {"measurement": "Cmax", "setting": "[3]; male, CD-1, mouse, in vivo, po, intact prodrug, brain, mice, 10 mg/kg eqv, read-out: Cmax", "value": "106 ± 11.6", "unit": "nM"}, {"measurement": "AUC", "setting": "[3]; [11]", "value": 0.805, "unit": "µM·h"}, {"measurement": "MRT", "setting": "[3]; [11]", "value": 3.39, "unit": "h"}, {"measurement": "half-life", "setting": "[3]; [11]", "value": 147, "unit": "min"}, {"measurement": "Cmax", "setting": "[3]; male, CD-1, mouse, in vivo, po, intact prodrug, plasma, mice, 10 mg/kg eqv, read-out: Cmax", "value": "546 ± 25.8", "unit": "nM"}, {"measurement": "Tmax", "setting": "[3]; [11]", "value": 1, "unit": "h"}, {"measurement": "Kp", "setting": "[3]; male, CD-1, mouse, in vivo, intact prodrug, mice, 10 mg/kg eqv, read-out: Brain:Plasma ratio", "value": 0.6}, {"measurement": "Stability in mouse (% remaining at 1h) Mean + Std Error, Liver", "setting": "[4]", "value": "85 ± 3", "unit": "%"}, {"measurement": "Stability in mouse (% remaining at 1h) Mean + Std Error, Plasma", "setting": "[5]; CES1−/− mouse plasma, 37° C.", "value": "90 ± 2", "unit": "%"}]}
{"smiles": "COc1cc(-c2nc(-c3ccccc3)c(-c3cccs3)[nH]2)cc(OC)c1OC(=O)C1=CN(C)C=CC1", "note": "[Compound P17, 2,6-Dimethoxy-4-(4-phenyl-5-(thiophen-2-yl)-1H-imidazol-2-yl)phenyl 1-methyl-1,4-dihydropyridine-3-carboxylate]", "values": [{"measurement": "intact prodrug remaining after 1 hour of incubation", "setting": "[6]", "value": "approximately 50%"}, {"measurement": "Stability in mouse (% remaining at 1h) Mean + Std Error, Liver", "setting": "[4]", "value": "22 ± 1", "unit": "%"}, {"measurement": "Stability in mouse (% remaining at 1h) Mean + Std Error, Plasma", "setting": "[5]; CES1−/− mouse plasma, 37° C.", "value": "52 ± 2", "unit": "%"}]}
{"smiles": "COc1cc(-c2nc(-c3cccs3)c(-c3ccccc3)[nH]2)cc(OC)c1O", "note": "[DPTIP, 2,6-dimethoxy-4-(5-phenyl-4-(thiophen-2-yl)-1H-imidazol-2-yl) phenol, reference compound]", "values": [{"measurement": "Stability in mouse (% remaining at 1h) Mean + Std Error, Brain", "setting": "[7]", "value": "89 ± 4", "unit": "%"}, {"measurement": "t1/2 (rapid clearance) of DPTIP", "setting": "[8]", "value": "< 30", "unit": "min"}, {"measurement": "inhibition of EV release", "setting": "EV release", "value": "dose-dependently inhibiting EV release in vitro and in vivo"}, {"measurement": "AUC", "setting": "[9]", "value": 7.47, "unit": "µM·h"}, {"measurement": "Cmax", "setting": "[9]", "value": 5.5, "unit": "µM"}, {"measurement": "Cmax", "setting": "[3]; male, CD-1, mouse, plasma, po", "value": 400, "unit": "nM"}, {"measurement": "brain levels of DPTIP", "setting": "[3]; mice, oral 10 mg/kg DPTIP equivalent", "value": 50, "unit": "nM"}, {"measurement": "Stability in mouse (% remaining at 1h) Mean + Std Error, Liver", "setting": "[4]", "value": "98 ± 6", "unit": "%"}, {"measurement": "Stability in mouse (% remaining at 1h) Mean + Std Error, Plasma", "setting": "[5]; CES1−/− (carboxylesterase 1 knockout), mouse, plasma", "value": "103 ± 2", "unit": "%"}]}
